Data published in patent publication US20220153732A1, “PROTEIN SECRETION INHIBITORS” (KEZAR LIFE SCIENCES, priority 2019, published 2022).

Experiments:
Assay type in all cases: cell-based
[1] = system: human multiple myeloma cell line U266B1; test: U266 Cell Viability Assay; settings: U-266, 48 hr, U266B1 cells, Celltiter-Glo, read-out: 48 hr U266 Viability Celltiter-Glo: Mean EC50
Summary of the method: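 Viability measured by CellTiter-Glo luciferase signal after 48 h compound exposure (37 °C, 5% CO2) of U266B1 cells in 384-well format. Where stereochemistry is not shown, data refer to the stereoisomer mixture.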

[2] = system: human multiple myeloma cell line NCI-H929; test: H929 Cell Viability Assay; settings: 48 hr, NCI-H929 cells, Celltiter-Glo, read-out: 48 hr H929 Viability Celltiter-Glo: Mean EC50
Method: Plates were incubated at 37° C., 5% CO2 for 48 hours. After 48 hours, Celltiter-Glo® (Promega) was added to each well and luciferase signal was quantified using Tecan Infinite M1000 Pro for cell viability determination.
For chemical structures that include one or more stereoisomers, but are illustrated without indicating stereochemistry, the assay data refers to a mixture of stereoisomers.

[3] = system: IL-2-FL/Gaussia Luciferase; test: Dox Induced IL2-FL-Gluc Assay; settings: 24 hr doxycycline induction, 293FRT/TO cells, Gaussia luciferase signal; read-out: 24 hr Dox Inducible IL2FLGIuc 293FRT/TO: Mean IC50
Summary of the method: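 Compounds were added together with doxycycline in DMSO/media and incubated at 37° C., 5% CO2. The cells were a stably selected line carrying IL-2-FL/Gaussia luciferase under T-REx inducible control. Structures drawn without stereochemistry were tested as stereoisomer mixtures.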

[4] = system: HER3-ss+4aa/Gaussia Luciferase; test: Dox-Induced Her3-ss-Gluc Assay; settings: 24 hr doxycycline induction, 293FRT/TO cells, Gaussia luciferase signal; read-out: 24 hr Dox Inducible Her3(ss + 4)Gluc 293FRT/TO: Mean IC50
Summary of the method: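 Compounds, diluted in DMSO/media containing doxycycline, were incubated at 37° C., 5% CO2 with cells seeded one day earlier. The cells stably express HER3-ss+4aa/Gaussia luciferase under T-REx control. Where no stereochemistry is shown, data refer to the mixture of stereoisomers.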

[5] = system: TNFα-FL/Gaussia Luciferase; test: Dox Induced TNFα-FL-Gluc Assay; settings: 24 hr doxycycline induction, 293FRT/TO cells, Gaussia luciferase signal; read-out: 24 hr Dox Inducible TNFaFLGluc 293FRT/TO: Mean IC50
Summary of the method: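 Compounds were added in doxycycline-containing DMSO/media to cells plated the previous day and incubated at 37° C under 5% CO2. These cells stably express a TNFα-FL/Gaussia luciferase cDNA whose expression is under T-REx (Dox-inducible) control, selected with Hygromycin and Blasticidin.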

[6] = system: PD1-ss+10aa/Gaussia Luciferase; test: Dox-Induced PD1-ss-Gluc Assay; settings: 24 hr doxycycline induction, 293FRT/TO cells, Gaussia luciferase signal; read-out: 24 hr Dox Inducible PD1ssGluc 293FRT/TO: Mean IC50
Summary of the method: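 Compounds, diluted in DMSO/media with doxycycline, were added to cells plated a day earlier and kept at 37° C under 5% CO2. The cells stably express a Gaussia luciferase construct fused to PD1-ss+10aa, induced via the T-REx system. Unassigned stereochemistry means mixture data.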

EC50 [1] | EC50 [2] | IC50 [3] | IC50 [4] | IC50 [5] | IC50 [6] | SMILES
> 25000 nM | > 25000 nM | 1050 nM | 565 nM | 5410 nM | 241 nM | COc1cccc(C#Cc2csc(NC(=O)c3cccn3Cc3ccncc3)n2)c1 [Compound A142]
> 19800 nM | 15200 nM | 617 nM | 423 nM | 1580 nM | 89 nM | COc1ccc(C#Cc2csc(NC(=O)c3cccn3Cc3ccncc3)n2)cc1 [Compound A143]
10400 nM | 6860 nM | 748 nM | 395 nM | 905 nM | 151 nM | O=C(Nc1nc(C#Cc2ccccc2Cl)cs1)c1cccn1Cc1ccncc1 [Compound A144]
> 25000 nM | 11000 nM | 854 nM | 280 nM | 1580 nM | 85 nM | O=C(Nc1nc(/C=C/C2CCCCC2)cs1)c1cccn1Cc1ccncc1 [Compound A152, N-(4-(2-cyclohexylvinyl)thiazol-2-yl)-1-(pyridin-4-ylmethyl)-1H-pyrrole-2-carboxamide]
> 25000 nM | > 25000 nM | 4070 nM | 1550 nM | > 25000 nM | 902 nM | O=C(Nc1nc(/C=C/C2CCOCC2)cs1)c1cccn1Cc1ccncc1 [Compound A153, 1-(pyridin-4-ylmethyl)-N-(4-(2-(tetrahydro-2H-pyran-4-yl)vinyl)thiazol-2-yl)-1H-pyrrole-2-carboxamide]
> 25000 nM | > 25000 nM | 5420 nM | 2600 nM | 11500 nM | 694 nM | O=C(Nc1nc(/C=C/C2CCCOC2)cs1)c1cccn1Cc1ccncc1 (stereo not drawn) [Compound A154, 1-(pyridin-4-ylmethyl)-N-(4-(2-(tetrahydro-2H-pyran-3-yl)vinyl)thiazol-2-yl)-1H-pyrrole-2-carboxamide]
> 25000 nM | > 25000 nM | 4370 nM | 2140 nM | 15900 nM | 232 nM | O=C(Nc1nc(/C=C/C2CCCCO2)cs1)c1cccn1Cc1ccncc1 (stereo not drawn) [Compound A155, 1-(pyridin-4-ylmethyl)-N-(4-(2-(tetrahydro-2H-pyran-2-yl)vinyl)thiazol-2-yl)-1H-pyrrole-2-carboxamide]
> 25000 nM | 15700 nM | 1470 nM | 993 nM | 2420 nM | 293 nM | COc1ccccc1/C=C/c1csc(NC(=O)c2cccn2Cc2ccncc2)n1 [Compound A158, N-(4-(2-methoxystyryl)thiazol-2-yl)-1-(pyridin-4-ylmethyl)-1H-pyrrole-2-carboxamide]
16200 nM | 5710 nM | 2650 nM | 948 nM | 9010 nM | 247 nM | COc1cccc(/C=C/c2csc(NC(=O)c3cccn3Cc3ccncc3)n2)c1 [Compound A159, N-(4-(3-methoxystyryl)thiazol-2-yl)-1-(pyridin-4-ylmethyl)-1H-pyrrole-2-carboxamide]
> 25000 nM | 9100 nM | 374 nM | 259 nM | 1740 nM | 51 nM | COc1ccc(/C=C/c2csc(NC(=O)c3cccn3Cc3ccncc3)n2)cc1 [Compound A160, N-(4-(4-methoxystyryl)thiazol-2-yl)-1-(pyridin-4-ylmethyl)-1H-pyrrole-2-carboxamide]
10900 nM | 5280 nM | 1070 nM | 523 nM | 2870 nM | 134 nM | O=C(Nc1nc(/C=C/c2ccccc2Cl)cs1)c1cccn1Cc1ccncc1 [Compound A161, N-(4-(2-chlorostyryl)thiazol-2-yl)-1-(pyridin-4-ylmethyl)-1H-pyrrole-2-carboxamide]
24500 nM | 7610 nM | 652 nM | 305 nM | 2470 nM | 59 nM | O=C(Nc1nc(/C=C/c2ccc(Cl)cc2)cs1)c1cccn1Cc1ccncc1 [Compound A163, N-(4-(4-chlorostyryl)thiazol-2-yl)-1-(pyridin-4-ylmethyl)-1H-pyrrole-2-carboxamide]
> 25000 nM | 17700 nM | 6770 nM | 8400 nM | 23700 nM | 98 nM | O=C(Nc1nc(/C=C/c2ccccn2)cs1)c1cccn1Cc1ccncc1 [Compound A164]
> 25000 nM | 11100 nM | 10800 nM | 9830 nM | > 25000 nM | 1650 nM | O=C(Nc1nc(/C=C/c2cccnc2)cs1)c1cccn1Cc1ccncc1 [Compound A165, N-(4-(2-(pyridin-3-yl)vinyl)thiazol-2-yl)-1-(pyridin-4-ylmethyl)-1H-pyrrole-2-carboxamide]
> 25000 nM | > 25000 nM | > 25000 nM | > 25000 nM | > 25000 nM | 13500 nM | O=C(Nc1nc(/C=C/c2ccncc2)cs1)c1cccn1Cc1ccncc1 [Compound A166, N-(4-(2-(pyridin-4-yl)vinyl)thiazol-2-yl)-1-(pyridin-4-ylmethyl)-1H-pyrrole-2-carboxamide]
> 25000 nM | 20800 nM | 1200 nM | 643 nM | 2870 nM | 272 nM | COc1cccc(CCc2csc(NC(=O)c3cccn3Cc3ccncc3)n2)c1 [Compound A176]
19900 nM | 9270 nM | 500 nM | 367 nM | 929 nM | 152 nM | O=C(Nc1nc(CCc2ccccc2Cl)cs1)c1cccn1Cc1ccncc1 [Compound A178]
10600 nM | 5750 nM | 1170 nM | 541 nM | 3580 nM | 211 nM | O=C(Nc1nc(CCc2cccc(Cl)c2)cs1)c1cccn1Cc1ccncc1 [Compound A179]
6460 nM | 7180 nM | 281 nM | 156 nM | 736 nM | 57 nM | O=C(Nc1nc(CCc2ccc(Cl)cc2)cs1)c1cccn1Cc1ccncc1 [Compound A180]
13300 nM | 11800 nM | 1080 nM | 807 nM | 2410 nM | 448 nM | O=C(Nc1nc(Cc2ccccc2)cs1)c1cccn1CCCc1ccncc1 [Compound A184, N-(4-benzylthiazol-2-yl)-1-(3-(pyridin-4-yl)propyl)-1H-pyrrole-2-carboxamide]
> 25000 nM | 18300 nM | 11600 nM | > 21900 nM | > 25000 nM | 10400 nM | O=C(Nc1nc(Cc2ccccc2)cs1)c1cccn1CCCc1cccnc1 [Compound A187, N-(4-benzylthiazol-2-yl)-1-(3-(pyridin-3-yl)propyl)-1H-pyrrole-2-carboxamide]
> 25000 nM | > 25000 nM | 3440 nM | > 18100 nM | > 25000 nM | 5230 nM | CC(C)OC(C)(C)c1csc(NC(=O)c2cccn2CCCc2cccnc2)n1 [Compound A190, N-(4-(2-isopropoxypropan-2-yl)thiazol-2-yl)-1-(3-(pyridin-3-yl)propyl)-1H-pyrrole-2-carboxamide]
16000 nM | 6670 nM | 1140 nM | 600 nM | 2300 nM | 280 nM | O=C(Nc1nc([C@H]2C[C@@H]2c2ccccc2)cs1)c1cccn1Cc1ccncc1 [Compound A194, N-(4-((1S,2S)-2-phenylcyclopropyl)thiazol-2-yl)-1-(pyridin-4-ylmethyl)-1H-pyrrole-2-carboxamide]
> 25000 nM | 15700 nM | 251 nM | 332 nM | 1610 nM | 140 nM | O=C(Nc1nc([C@H]2C[C@H]2c2ccccc2)cs1)c1cccn1Cc1ccncc1 [Compound A200]
> 25000 nM | > 25000 nM | 1240 nM | 578 nM | 4740 nM | 232 nM | O=C(Nc1nc(/C=C/c2cccc(Cl)c2)cs1)c1cccn1Cc1ccncc1 [Compound A209, N-(4-(3-chlorostyryl)thiazol-2-yl)-1-(pyridin-4-ylmethyl)-1H-pyrrole-2-carboxamide]
